Test results taken from US9833497B2, “Human originated EGF domain proteins and use of the same” (CHENGDU SOURCEBIO LIMITED-LIABILITY COMPANY, priority 2013, dated 2017).

Legend:
Format in all cases: cell-based
[1] = test system: Citrobacter diversus; test: MIC against Gram-negative bacteria: Citrobacter diversus; details: 5×10^5 CFU/mL
Procedure, shortened: (§1)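 Purified recombinant human EGF domain proteins are tested by broth dilution in LB against a 5×10^5 CFU/mL inoculum, with two-fold serial dilutions run in triplicate. Plates are incubated at 37° C with shaking, and the MIC is read as the lowest protein concentration without growth.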

[2] = test system: E. coli BL21; test: MIC against Gram-negative bacteria: E. coli BL21; details: 5×10^5 CFU/mL
Procedure, shortened: as §1

[3] = test system: Proteus vulgaris; test: MIC against Gram-negative bacteria: Proteus vulgaris; details: 5×10^5 CFU/mL
Procedure, shortened: as §1

[4] = test system: Klebsiella pneumonia; test: MIC against Gram-negative bacteria: Klebsiella pneumonia; details: 5×10^5 CFU/mL
Procedure, shortened: as §1

[5] = test system: Serratia marcescens; test: MIC against Gram-negative bacteria: Serratia marcescens; details: 5×10^5 CFU/mL
Procedure, shortened: as §1

[6] = test system: Moraxella catarrhalis; test: MIC against Gram-negative bacteria: Moraxella catarrhalis; details: 5×10^5 CFU/mL
Procedure, shortened: as §1

[7] = test system: Proteus mirabilis; test: MIC against Gram-negative bacteria: Proteus mirabilis; details: 5×10^5 CFU/mL
Procedure, shortened: as §1

[8] = test system: E. coli DH5α; test: Antibacterial activity: MIC and growth curve against E. coli DH5α in 96-well plate; details: minimal inhibitory concentration against E. coli DH5α; 96-well plate, 5×10^5 CFU/mL, 37° C., judged after 8 h
Procedure, shortened: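 Log-phase bacteria (OD600 ~0.5) resuspended in LB at 5×10^5 CFU/mL, exposed to recombinant protein at 50, 25, 12.5 μg/mL final in triplicate, 37 °C shaking at 175 rpm. OD600 read every 30 min; MIC is lowest concentration showing no growth.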

[9] = test system: Aeromonas hydrophila; test: MIC against Gram-negative bacteria: Aeromonas hydrophila; details: 5×10^5 CFU/mL
Procedure, shortened: as §1

[10] = test system: Pseudomonas aeruginosa; test: MIC against Gram-negative bacteria: Pseudomonas aeruginosa; details: 5×10^5 CFU/mL
Procedure, shortened: as §1

[11] = test system: Enterobacter cloacae; test: MIC against Gram-negative bacteria: Enterobacter cloacae; details: 5×10^5 CFU/mL
Procedure, shortened: as §1

[12] = C. diversus, 10 h cultivation at 37° C.
[13] = E. coli BL21, 10 h cultivation at 37° C.
[14] = P. vulgaris, 10 h cultivation at 37° C.
[15] = K. pneumonia, 10 h cultivation at 37° C.
[16] = S. marcescens, 10 h cultivation at 37° C.
[17] = M. catarrhalis, 10 h cultivation at 37° C.
[18] = P. mirabilis, 10 h cultivation at 37° C.
[19] = A. hydrophila, 10 h cultivation at 37° C.
[20] = P. aeruginosa, 10 h cultivation at 37° C.
[21] = E. cloacae, 10 h cultivation at 37° C.
[22] = 10 h cultivation at 37° C., two-fold serial dilution

Substance | MIC (μg/mL) C. diversus [1, 12] [µg/mL] | MIC (μg/mL) E. coli BL21 [2, 13] [µg/mL] | MIC (μg/mL) P. vulgaris [3, 14] [µg/mL] | MIC (μg/mL) K. pneumonia [4, 15] [µg/mL] | MIC (μg/mL) S. marcescens [5, 16] [µg/mL] | MIC (μg/mL) M. catarrhalis [6, 17] [µg/mL] | MIC (μg/mL) P. mirabilis [7, 18] [µg/mL] | MIC [8] [µg/mL] | MIC (μg/mL) A. hydrophila [9, 19] [µg/mL] | MIC (μg/mL) P. aeruginosa [10, 20] [µg/mL] | MIC (μg/mL) E. cloacae [11, 21] [µg/mL] | further results
PRT748 (YTASCQPWSCSGHGECVEIINNYTCNCDVGYYGPQCQ; listed as Homo sapiens) | 50 | 25 | 12.5 | 25 | 25 | 12.5 | 50 | 50 | 12.5 | 12.5 | 50 | 
PRT714 (HINECLSKKVSGCSQDCQDLPVSYKCKCWPGFQLKDDGKTCV; listed as Homo sapiens) |  |  |  |  |  |  |  | 12.5 |  |  |  | MIC C. diversus ([1]; 96-well plate, 37° C., 10 h): 12.5 µg/mL; MIC E. coli BL21 ([2]; 96-well plate, 37° C., 10 h): 25 µg/mL; MIC P. vulgaris ([3]; 96-well plate, 37° C., 10 h): 50 µg/mL; MIC K. pneumonia ([4]; 96-well plate, 37° C., 10 h): 12.5 µg/mL; MIC S. marcescens ([5]; 96-well plate, 37° C., 10 h): 12.5 µg/mL; MIC M. catarrhalis ([6]; 96-well plate, 37° C., 10 h): 50 µg/mL; MIC P. mirabilis ([7]; 96-well plate, 37° C., 10 h): 12.5 µg/mL; MIC A. hydrophila ([9]; 96-well plate, 37° C., 10 h): 50 µg/mL; MIC P. aeruginosa ([10]; 96-well plate, 37° C., 10 h): 12.5 µg/mL; MIC E. cloacae ([11]; 96-well plate, 37° C., 10 h): 12.5 µg/mL
PRT870 (CECFGHSNRCSYIDLLNTVICVSCKHNTRGQHCELCRLGYFRNASAQLDDENVCIE; listed as Homo sapiens) | 25 | 50 | 12.5 | 50 | 50 | 50 | 25 | 12.5 | 12.5 | 100 | 25 | 
PRT443 (DIDECENTDACQHECKNTFGSYQCICPPGYQLTHNGKTCQ; listed as Homo sapiens) |  |  |  |  |  |  |  | 12.5 |  |  |  | MIC [1, 12]: 25 µg/mL; MIC [2, 13]: 25 µg/mL; MIC [3, 14]: 12.5 µg/mL; MIC [4, 15]: 12.5 µg/mL; MIC [5, 16]: 50 µg/mL; MIC [6, 17]: 12.5 µg/mL; MIC [7, 18]: 25 µg/mL; MIC [9, 19]: 12.5 µg/mL; MIC [10, 20]: 12.5 µg/mL; MIC [11, 21]: 12.5 µg/mL
PRT826 (FGVGCEHTCSCRNGGLCHASNGSCSCGLGWTGRHCE; listed as Homo sapiens) | 12.5 | 50 | 12.5 | 100 | 12.5 | 25 | 12.5 | 12.5 | 12.5 | 25 | 50 | 
PRT1046 (WGFSCNASCQCAHEAVCSPQTGACTCTPGWHGAHCQ; listed as Homo sapiens) |  |  |  |  |  |  |  | 50 |  |  |  | MIC C. diversus [1, 22]: 50 µg/mL; MIC E. coli BL21 [2, 22]: 25 µg/mL; MIC P. vulgaris [3, 22]: 25 µg/mL; MIC K. pneumonia [4, 22]: 25 µg/mL; MIC S. marcescens [5, 22]: 12.5 µg/mL; MIC M. catarrhalis [6, 22]: 50 µg/mL; MIC P. mirabilis [7, 22]: 50 µg/mL; MIC A. hydrophila [9, 22]: 12.5 µg/mL; MIC P. aeruginosa [10, 22]: 50 µg/mL; MIC E. cloacae [11, 22]: 25 µg/mL
PRT796 (SGDFCIPLCTEECVHGRCVSPDTCHCEPGWGGPDCS; listed as Homo sapiens) | 5 | 50 | 50 | 50 | 50 | 50 | 12.5 | 25 | 50 | 12.5 | 50 | 
